Tests used:
PDE5A1 = biological target: T1, PDE5A1 (Homo sapiens, UniProt O76074); assay: Inhibition of type 5 phosphodiesterase (PDE5) activity, modified SPA test with human platelet lysate; format: biochemical; conditions: 0.5 μM cGMP, read-out: PDE5A1 inhibitory values [measured as −log IC50 (mol/l)] (converted)
T1 construct: from tissue; host or cells: human platelets from fresh donor blood (10,000 x g supernatant of sonicated lysate)
Outline: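 Enzyme source is lysate from human platelets (10,000 g supernatant). Compound preincubated 5 min at 37° C in Tris pH 7.4 containing 1 μM motapizone and 10 nM of a PDE2 inhibitor. Reaction started with 0.5 μM cGMP ([3H] tracer) and run 15 min; SPA read-out, IC50 by non-linear regression.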

PDE4B1 = biological target: T2, PDE4B1 (Homo sapiens, UniProt Q07343); assay: Inhibition of type 4 phosphodiesterase (PDE4) activity, modified SPA test with recombinant PDE4B1 expressed in SF21 insect cells; format: biochemical; conditions: recombinant PDE4B1, 0.5 μM cAMP, read-out: PDE4B1 inhibitory values [measured as −log IC50 (mol/l)] (converted)
T2 construct: made in house; host or cells: SF21 insect cells (baculovirus; pCRBac vector), 1000 x g supernatant of homogenate
Outline: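 Modified [3H]cAMP SPA using 1000×g supernatant of SF21 cells expressing recombinant human PDE4B1, in 20 mM Tris pH 7.4, 0.1 mg/ml BSA, 5 mM Mg2+, 0.5 μM cAMP. After 5 min preincubation at 37 °C, 15 min reaction, stopped with SPA beads plus IBMX; IC50 by non-linear regression.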

T2 sequence (Q07343 whole entry): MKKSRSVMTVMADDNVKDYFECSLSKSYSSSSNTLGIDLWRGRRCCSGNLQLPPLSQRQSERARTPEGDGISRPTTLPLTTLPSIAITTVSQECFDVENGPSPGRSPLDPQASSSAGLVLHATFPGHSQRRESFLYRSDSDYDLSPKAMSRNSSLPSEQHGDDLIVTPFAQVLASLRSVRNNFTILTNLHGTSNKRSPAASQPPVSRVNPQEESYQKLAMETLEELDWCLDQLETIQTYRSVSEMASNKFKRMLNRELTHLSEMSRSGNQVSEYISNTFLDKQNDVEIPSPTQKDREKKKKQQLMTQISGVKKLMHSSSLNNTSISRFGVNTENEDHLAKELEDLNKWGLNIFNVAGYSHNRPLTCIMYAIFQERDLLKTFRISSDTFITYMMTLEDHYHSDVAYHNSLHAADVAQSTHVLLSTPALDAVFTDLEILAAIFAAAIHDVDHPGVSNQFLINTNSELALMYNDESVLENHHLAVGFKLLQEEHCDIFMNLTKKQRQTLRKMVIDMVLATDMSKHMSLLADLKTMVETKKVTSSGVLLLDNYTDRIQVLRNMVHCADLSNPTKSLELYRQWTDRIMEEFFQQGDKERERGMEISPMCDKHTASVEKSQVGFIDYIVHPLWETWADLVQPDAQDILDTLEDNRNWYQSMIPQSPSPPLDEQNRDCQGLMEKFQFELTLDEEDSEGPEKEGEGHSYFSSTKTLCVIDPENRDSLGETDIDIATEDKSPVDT

Row | IC50 (PDE5A1) | IC50 (PDE4B1) | Structure (SMILES)
1 | < 1 nM | 100 to 1000 nM | CC(=O)N[C@H]1CC[C@@H](NC(=O)c2c(C)[nH]c3c(-c4cc(C(F)(F)F)ccc4OCC4CC4)ncnc23)CC1 [Example E96, N-[cis-4-(acetylamino)cyclohexyl]-4-[2-(cyclopropylmethoxy)-5-(trifluoromethyl)phenyl]-6-methyl-5H-pyrrolo[3,2-d]pyrimidine-7-carboxamide]
2 | < 1 nM | < 100 nM | CCc1ccc(OCC2CC2)c(-c2ncnc3c(C(=O)NC4CCC(NC(=O)C(C)O)CC4)c(C)[nH]c23)c1 (stereo not drawn) [Example F96, 4-[2-(Cyclopropylmethoxy)-5-ethylphenyl]-N-(cis-4-{[(25)-2-hydroxypropanoyl]amino}cyclohexyl)-6-methyl-5H-pyrrolo[3,2-d]pyrimidine-7-carboxamide]
3 | < 1 nM | < 100 nM | CC(=O)N[C@@H]1CC[C@@H](NC(=O)c2c(C)[nH]c3c(-c4cc(C(F)F)ccc4OCC4CC4)ncnc23)[C@H](F)C1 (relative stereo) [Example P159, N-[(1R*,2R*,4R*)-4-(Acetylamino)-2-fluorocyclohexyl]-4-[2-(cyclopropylmethoxy)-5-(difluoromethyl)phenyl]-6-methyl-5H-pyrrolo[3,2-d]pyrimidine-7-carboxamide]
4 | < 1 nM | < 100 nM | COCC(=O)N[C@H]1CC[C@@H](NC(=O)c2c(C)[nH]c3c(-c4cc(C)ccc4OCC4CC4)ncnc23)CC1 [Example E89, 4-[2-(Cyclopropylmethoxy)-5-methylphenyl]-N-{cis-4-[(methoxyacetyl)amino]cyclohexyl}-6-methyl-5H-pyrrolo[3,2-d]pyrimidine-7-carboxamide]
5 | < 1 nM | < 100 nM | COCC(=O)N[C@H]1CC[C@@H](NC(=O)c2c(C)[nH]c3c(-c4cc(C(F)(F)F)ccc4OCC4CC4)ncnc23)CC1 [Example E98, 4-[2-(Cyclopropylmethoxy)-5-(trifluoromethyl)phenyl]-N-{cis-4-[(methoxyacetyl)amino]cyclohexyl}-6-methyl-5H-pyrrolo[3,2-d]pyrimidine-7-carboxamide]
6 | < 1 nM | < 100 nM | CCC(=O)N[C@H]1CC[C@@H](NC(=O)c2c(C)[nH]c3c(-c4cc(C(F)(F)F)ccc4OCC4CC4)ncnc23)CC1 [Example E97, 4-[2-(Cyclopropylmethoxy)-5-(trifluoromethyl)phenyl]-6-methyl-N-[cis-4-(propanoylamino)cyclohexyl]-5H-pyrrolo[3,2-d]pyrimidine-7-carboxamide]
7 | < 1 nM | < 100 nM | CCC(=O)N1CCC(NC(=O)c2c(C)[nH]c3c(-c4cc(C)ccc4OCC4CC4)ncnc23)CC1 [Example E82, 4-[2-(Cyclopropylmethoxy)-5-methylphenyl]-6-methyl-N-(1-propanoylpiperidin-4-yl)-5H-pyrrolo[3,2-d]pyrimidine-7-carboxamide]
8 | < 1 nM | < 100 nM | COCC(=O)N[C@H]1CC[C@H](NC(=O)c2c(C)[nH]c3c(-c4cc(C)ccc4OCC4CC4)ncnc23)CC1 [Example E86, 4-[2-(Cyclopropylmethoxy)-5-methylphenyl]-N-{trans-4-[(methoxyacetyl)amino]cyclohexyl}-6-methyl-5H-pyrrolo[3,2-d]pyrimidine-7-carboxamide]
9 | < 1 nM | < 100 nM | CC(=O)N[C@H]1CC[C@H](NC(=O)c2c(C)[nH]c3c(-c4cc(F)ccc4OCC4CC4)ncnc23)CC1 [Example E41, N-(trans-4-acetamidocyclohexyl)-4-[2-(cyclopropylmethoxy)-5-fluorophenyl]-6-methyl-5H-pyrrolo[3,2-d]pyrimidine-7-carboxamide]
10 | 1 to 10 nM | 100 to 1000 nM | CCc1ccc(OCC2CC2)c(-c2ncnc3c(C(=O)N[C@@H]4CN(C(=O)COC)C[C@H]4O)c(C)[nH]c23)c1 (relative stereo) [Example E156, 4-[2-(Cyclopropylmethoxy)-5-ethylphenyl]-N-[(3R*,4R*)-4-hydroxy-1-(methoxyacetyl)pyrrolidin-3-yl]-6-methyl-5H-pyrrolo[3,2-d]pyrimidine-7-carboxamide]
11 | 1 to 10 nM | 100 to 1000 nM | Cc1[nH]c2c(-c3cc(F)ccc3OCC3CC3)ncnc2c1C(=O)N[C@H]1CC[C@@H](NC(=O)[C@H](C)O)CC1 [Example F27, 4-[2-(Cyclopropylmethoxy)-5-fluorophenyl]-N-(cis-4-{[(2S)-2-hydroxypropanoyl]amino}cyclohexyl)-6-methyl-5H-pyrrolo[3,2-d]pyrimidine-7-carboxamide]
12 | < 1 nM | < 100 nM | Cc1[nH]c2c(-c3cc(F)ccc3OCC3CC3)ncnc2c1C(=O)N[C@H]1CC[C@H](NC(=O)CO)CC1 [Example F25, 4-[2-(Cyclopropylmethoxy)-5-fluorophenyl]-N-[trans-4-(glycoloylamino)cyclohexyl]-6-methyl-5H-pyrrolo[3,2-d]pyrimidine-7-carboxamide]
13 | 1 to 10 nM | < 100 nM | CC(=O)N1C[C@@H](NC(=O)c2c(C)[nH]c3c(-c4cc(C(F)F)ccc4OCC4CC4)ncnc23)C[C@@H]1C [Example P24, N-[(3S,5S)-1-Acetyl-5-methylpyrrolidin-3-yl]-4-[2-(cyclopropylmethoxy)-5-(difluoromethyl)phenyl]-6-methyl-5H-pyrrolo[3,2-d]pyrimidine-7-carboxamide]
14 | < 1 nM | 100 to 1000 nM | Cc1[nH]c2c(-c3cc(F)ccc3OCC3CC3)ncnc2c1C(=O)NC1CCN(C(=O)[C@H](C)O)CC1 [Example F24, 4-(2-Cyclopropylmethoxy-5-fluoro-phenyl)-6-methyl-5H-pyrrolo[3,2-d]pyrimidine-7-carboxylic acid [1-((S)-2-hydroxy-propionyl)-piperidin-4-yl]-amide]
15 | < 1 nM | 100 to 1000 nM | CCc1ccc(OCC2CC2)c(-c2ncnc3c(C(=O)NC4CCN(C(C)=O)CC4)c(C)[nH]c23)c1 [Example E145, N-(1-Acetylpiperidin-4-yl)-4-[2-(cyclopropylmethoxy)-5-ethylphenyl]-6-methyl-5H-pyrrolo[3,2-d]pyrimidine-7-carboxamide]
16 | < 1 nM | < 100 nM | CC(=O)N[C@H]1CC[C@H](NC(=O)c2c(C)[nH]c3c(-c4cc(C(F)F)ccc4OCC4CC4)ncnc23)C[C@H]1F (relative stereo) [Example P199, N-[(1S*,3R*,4S*)-4-(Acetylamino)-3-fluorocyclohexyl]-4-[2-(cyclopropylmethoxy)-5-(difluoromethyl)phenyl]-6-methyl-5H-pyrrolo[3,2-d]pyrimidine-7-carboxamide]
17 | < 1 nM | 100 to 1000 nM | COc1ccc(OCC2CC2)c(-c2ncnc3c(C(=O)NC4CCN(C(=O)CO)CC4)c(C)[nH]c23)c1 [Example F41, 4-[2-(Cyclopropylmethoxy)-5-methoxyphenyl]-N-(1-glycoloylpiperidin-4-yl)-6-methyl-5H-pyrrolo[3,2-d]pyrimidine-7-carboxamide]
18 | < 1 nM | < 100 nM | CC(=O)N1CCC(NC(=O)c2c(C)[nH]c3c(-c4cc(C(F)F)ccc4OCC4CC4)ncnc23)CC1 [Example P1, N-(1-Acetylpiperidin-4-yl)-4-[2-(cyclopropylmethoxy)-5-(difluoromethyl)phenyl]-6-methyl-5H-pyrrolo[3,2-d]pyrimidine-7-carboxamide]
19 | < 1 nM | < 100 nM | COCC(=O)N1CCC(NC(=O)c2c(C)[nH]c3c(-c4cc(C(F)(F)F)ccc4OCC4CC4)ncnc23)CC1 [Example E92, 4-[2-(Cyclopropylmethoxy)-5-(trifluoromethyl)phenyl]-N-[1-(methoxyacetyl)piperidin-4-yl]-6-methyl-5H-pyrrolo[3,2-d]pyrimidine-7-carboxamide]
20 | < 1 nM | 100 to 1000 nM | Cc1[nH]c2c(-c3cc(C(F)(F)F)ccc3OCC3CC3)ncnc2c1C(=O)NC1CCN(C(=O)[C@H](C)O)CC1 [Example F58, 4-[2-(Cyclopropylmethoxy)-5-(trifluoromethyl)phenyl]-N-{1-[(2S)-2-hydroxypropanoyl]piperidin-4-yl}-6-methyl-5H-pyrrolo[3,2-d]pyrimidine-7-carboxamide]
21 | < 1 nM | < 100 nM | Cc1ccc(OCC2CC2)c(-c2ncnc3c(C(=O)N[C@H]4CC[C@H](NC(=O)[C@H](C)O)CC4)c(C)[nH]c23)c1 [Example F54, 4-[2-(Cyclopropylmethoxy)-5-methylphenyl]-N-(trans-4-{[(2S)-2-hydroxypropanoyl]amino}cyclohexyl)-6-methyl-5H-pyrrolo[3,2-d]pyrimidine-7-carboxamide]
22 | < 1 nM | < 100 nM | COCC(=O)N[C@H]1CC[C@H](NC(=O)c2c(C)[nH]c3c(-c4cc(C(F)F)ccc4OCC4CC4)ncnc23)C[C@@H]1F (relative stereo) [Example P211, 4-[2-(Cyclopropylmethoxy)-5-(difluoromethyl)phenyl]-N-{(1S*,3S*,4S*)-3-fluoro-4-[(methoxyacetyl)amino]cyclohexyl}-6-methyl-5H-pyrrolo[3,2-d]pyrimidine-7-carboxamide]
23 | < 1 nM | 100 to 1000 nM | COCC(=O)N[C@H]1CC[C@H](NC(=O)c2c(C)[nH]c3c(-c4cc(C(C)C)ccc4OCC4CC4)ncnc23)CC1 [Example E160, 4-[2-(Cyclopropylmethoxy)-5-(propan-2-yl)phenyl]-N-{trans-4-[(methoxyacetyl)amino]cyclohexyl}-6-methyl-5H-pyrrolo[3,2-d]pyrimidine-7-carboxamide]

Source: patent US9376442B2, “Methylpyrrolopyrimidinecarboxamides” (Takeda GmbH, priority 2009, dated 2016)
